According to ChEMBL document CHEMBL4765407, “Design, synthesis and high antitumor potential of new unsymmetrical bisacridine derivatives towards human solid tumors, specifically pancreatic cancers and their unique ability to stabilize DNA G-quadruplexes” (Eur J Med Chem, 2020):
Blank lines part the entries; values can stand above or below the compound they belong to.

Experiments:
NCI-H460 [1] = assay: Cytotoxicity against human NCI-H460 cells assessed as reduction in cell viability measured after 72 hrs by SRB assay; format: functional, cell-based; conditions: NCI-H460, 72 h
W256 [2] = assay: Antitumour activity against Walker 256 adenocarcinoma cells implanted in Wistar rat assessed as increase in animal survival rate by measuring T/C ratio at 10 mg/kg, ip qd for 3 days administered on day 3,4,5 after tumor cell transplantation; format: functional; conditions: time 3 day
DU-145 = assay: Cytotoxicity against human DU-145 cells assessed as reduction in cell viability measured after 72 hrs by SRB assay; format: functional, cell-based; conditions: DU-145, 72 h
LNCaP = assay: Cytotoxicity against human LNCaP cells assessed as reduction in cell viability measured after 72 hrs by SRB assay; format: functional, cell-based
HT-29 [3] = assay: Cytotoxicity against human HT-29 cells assessed as reduction in cell viability measured after 72 hrs by SRB assay; format: functional, cell-based; conditions: HT-29, 72 h
HCT-116 = assay: Cytotoxicity against human HCT-116 cells assessed as reduction in cell viability measured after 72 hrs by SRB assay; format: functional, cell-based; conditions: HCT-116, 72 h
W256 [4] = assay: Antitumour activity against Walker 256 adenocarcinoma cells implanted in Wistar rat assessed as increase in animal survival rate by measuring T/C ratio at 20 mg/kg, ip qd for 3 days administered on day 3,4,5 after tumor cell transplantation; format: functional; conditions: time 3 day
[5] = Stabilization of ds 5'-FAM-d(TATAGCTATA-HEG-TATAGCTATA)-TAMRA-3' (unknown origin) assessed as change in melting temperature at 10 microM measured after 15 mins by FRET assay; conditions: Homo sapiens
ASPC1 = assay: Cytotoxicity against human ASPC1 cells assessed as reduction in cell viability measured after 72 hrs by SRB assay; format: functional, cell-based; conditions: ASPC1, 72 h
Quadruplex DNA [6] = assay: Stabilization of 5'-FAM/3'-TAMRA labeled K-Ras G4 quadruplex DNA (unknown origin) assessed as change in melting temperature at 10 microM measured after 15 mins by FRET assay; format: nucleic-acid assay
MIA PaCa-2 = assay: Cytotoxicity against human MIA PaCa-2 cells assessed as reduction in cell viability measured after 72 hrs by SRB assay; format: functional, cell-based; conditions: MIA PaCa-2, 72 h
Quadruplex DNA [7] = assay: Stabilization of 5'-FAM/3'-TAMRA labeled telomeric G4 quadruplex DNA F21T (unknown origin) assessed as change in melting temperature at 10 microM measured after 15 mins by FRET assay; format: nucleic-acid assay
MDA-MB-231 = assay: Cytotoxicity against human MDA-MB-231 cells assessed as reduction in cell viability measured after 72 hrs by SRB assay; format: functional, cell-based; conditions: MDA-MB-231, 72 h
PANC-1 = assay: Cytotoxicity against human PANC-1 cells assessed as reduction in cell viability measured after 72 hrs by SRB assay; format: functional, cell-based; conditions: PANC-1, 72 h
Quadruplex DNA [8] = assay: Stabilization of 5'-FAM/3'-TAMRA labeled c-Myc promoter G4 quadruplex DNA FPu18 (unknown origin) assessed as change in melting temperature at 10 microM measured after 15 mins by FRET assay; format: nucleic-acid assay
W256 [9] = assay: Antitumour activity against Walker 256 adenocarcinoma cells implanted in Wistar rat assessed as increase in animal survival rate by measuring T/C ratio at 40 mg/kg, ip qd for 3 days administered on day 3,4,5 after tumor cell transplantation; format: functional; conditions: time 3 day
PC-3 = assay: Cytotoxicity against human PC-3 cells assessed as reduction in cell viability measured after 72 hrs by SRB assay; format: functional, cell-based; conditions: PC-3, 72 h
W256 [10] = assay: Antitumour activity against Walker 256 adenocarcinoma cells implanted in Wistar rat assessed as increase in animal survival rate by measuring T/C ratio at 4 mg/kg, ip qd for 3 days administered on day 3,4,5 after tumor cell transplantation; format: functional; conditions: time 3 day
UMUC3 = assay: Cytotoxicity against human UMUC3 cells assessed as reduction in cell viability measured after 72 hrs by SRB assay; format: functional, cell-based; conditions: UMUC3, 72 h
MCF7 = assay: Cytotoxicity against human MCF7 cells assessed as reduction in cell viability measured after 72 hrs by SRB assay; format: functional, cell-based; conditions: MCF7, 72 h
HT-29 [11] = assay: Antitumour activity against human HT-29 cells xenografted in Crl:Nu-Foxnl nu mouse assessed as inhibition of tumour growth at total effective dose of 24 mg/kg, ip measured on day 21; format: functional; conditions: HT-29, ip, 504 h, time 21 day, read-out: TGI
NCI-H460 [12] = assay: Antitumour activity against human NCI-H460 cells xenografted in Crl:Nu-Foxnl nu mouse assessed as inhibition of tumour growth at total effective dose of 30 mg/kg, iv measured on day 14; format: functional; conditions: 336 h, time 14 day, read-out: TGI
HT-29 [13] = assay: Antitumour activity against human HT-29 cells xenografted in Crl:Nu-Foxnl nu mouse assessed as inhibition of tumour growth at total effective dose of 24 mg/kg, iv measured on day 21; format: functional; conditions: HT-29, iv, 504 h, time 21 day, read-out: TGI
W256 [14] = assay: Antitumour activity against Walker 256 adenocarcinoma cells implanted in Wistar rat assessed as increase in animal survival rate by measuring T/C ratio at 5 mg/kg, ip qd for 3 days administered on day 3,4,5 after tumor cell transplantation; format: functional; conditions: time 3 day

Compound: Cc1ccc([N+](=O)[O-])c2c(NCCCNCCCNc3ccc([N+](=O)[O-])c4[nH]c5ccc(O)cc5c(=O)c34)c3ccccc3nc12
IC50 (NCI-H460 [1]): 0.073 µM | T/C (W256 [2]): 1500% | IC50 (DU-145): 0.078 µM | IC50 (LNCaP): 0.123 µM | IC50 (HT-29 [3]): 0.129 µM | IC50 (HCT-116): 0.088 µM

Compound: Cc1ccc([N+](=O)[O-])c2c(NCCCN3CCN(CCCNc4ccc([N+](=O)[O-])c5[nH]c6ccc(O)cc6c(=O)c45)CC3)c3ccccc3nc12
T/C (W256 [4]): 250% | IC50 (NCI-H460 [1]): 0.047 µM | IC50 (DU-145): 0.061 µM | IC50 (LNCaP): 4.03 µM | IC50 (HT-29 [3]): 0.233 µM

ΔTm [5]: 5.9 °C | ΔTm (Quadruplex DNA [6]): 36.5 °C | ΔTm (Quadruplex DNA [7]): 27.5 °C | ΔTm (Quadruplex DNA [8]): 37.5 °C
Compound: NC(CCN1CCN(CCCNc2ccc3nnn4c5ccc(O)cc5c(=O)c2c34)CC1)c1ccc2nc3ccccc3cc2c1[N+](=O)[O-] (stereo not drawn)
IC50 (ASPC1): 0.137 µM | IC50 (MIA PaCa-2): 0.017 µM | IC50 (DU-145): 0.017 µM | IC50 (MDA-MB-231): 0.029 µM | IC50 (PANC-1): 0.036 µM

Compound: Cc1ccc([N+](=O)[O-])c2c(NCCNCCNc3ccc(C)c4[nH]c5ccccc5c(=O)c34)c3ccccc3nc12
IC50 (DU-145): 0.599 µM | T/C (W256 [9]): 250% | IC50 (LNCaP): 0.25 µM | IC50 (HT-29 [3]): 0.413 µM

Compound: Cc1ccc([N+](=O)[O-])c2c(NCCCN(C)CCCNc3ccc([N+](=O)[O-])c4[nH]c5ccc(O)cc5c(=O)c34)c3ccccc3nc12
T/C (W256 [4]): 400% | IC50 (NCI-H460 [1]): 0.046 µM | IC50 (DU-145): 0.073 µM | IC50 (LNCaP): 0.377 µM | IC50 (HT-29 [3]): 0.2 µM

Compound: O=c1c2cc(O)ccc2[nH]c2c([N+](=O)[O-])ccc(NCCCN3CCN(CCCNc4c5ccccc5nc5cccc([N+](=O)[O-])c45)CC3)c12
IC50 (PC-3): 0.031 µM | ΔTm [5]: 3.3 °C | T/C (W256 [10]): 300% | IC50 (ASPC1): 0.21 µM | IC50 (UMUC3): 0.033 µM | IC50 (MCF7): 0.061 µM | IC50 (NCI-H460 [1]): 0.02 µM | ΔTm (Quadruplex DNA [6]): 26.6 °C | IC50 (MIA PaCa-2): 0.012 µM | IC50 (DU-145): 0.02 µM | ΔTm (Quadruplex DNA [7]): 16 °C | IC50 (LNCaP): 0.117 µM | IC50 (MDA-MB-231): 0.012 µM | inhibition in vivo at 24 mg/kg (HT-29 [11]): 25% | IC50 (HT-29 [3]): 0.038 µM | IC50 (HCT-116): 0.011 µM | inhibition in vivo at 30 mg/kg (NCI-H460 [12]): 24% | inhibition in vivo at 24 mg/kg (HT-29 [13]): 39% | IC50 (PANC-1): 0.043 µM | ΔTm (Quadruplex DNA [8]): 32.6 °C

Compound: Cc1ccc(NCCCN(C)CCCNc2c3ccccc3nc3cccc([N+](=O)[O-])c23)c2c(=O)c3ccccc3[nH]c12
IC50 (DU-145): 0.025 µM | IC50 (MDA-MB-231): 0.039 µM | IC50 (HT-29 [3]): 0.049 µM | IC50 (PANC-1): 0.04 µM

Compound: Cc1ccc([N+](=O)[O-])c2c(NCCNc3ccc(C)c4[nH]c5ccccc5c(=O)c34)c3ccccc3nc12
IC50 (NCI-H460 [1]): 0.37 µM | IC50 (DU-145): 0.417 µM | IC50 (HT-29 [3]): 1.18 µM | IC50 (HCT-116): 1.27 µM | T/C (W256 [14]): 750%
